Source: publication PMC10882719 (Frontiers in Neuroscience, 2024)
Read-outs that look alike come from different tables or passages of the source.

Tests used:
Assay type in all cases: cell-based
168 GPCRs [1] = target: T1, 168 GPCRs (Homo sapiens, UniProt P08172)
T1 construct: host or cells: PathHunter cell lines
T1 sequence (P08172 1-466): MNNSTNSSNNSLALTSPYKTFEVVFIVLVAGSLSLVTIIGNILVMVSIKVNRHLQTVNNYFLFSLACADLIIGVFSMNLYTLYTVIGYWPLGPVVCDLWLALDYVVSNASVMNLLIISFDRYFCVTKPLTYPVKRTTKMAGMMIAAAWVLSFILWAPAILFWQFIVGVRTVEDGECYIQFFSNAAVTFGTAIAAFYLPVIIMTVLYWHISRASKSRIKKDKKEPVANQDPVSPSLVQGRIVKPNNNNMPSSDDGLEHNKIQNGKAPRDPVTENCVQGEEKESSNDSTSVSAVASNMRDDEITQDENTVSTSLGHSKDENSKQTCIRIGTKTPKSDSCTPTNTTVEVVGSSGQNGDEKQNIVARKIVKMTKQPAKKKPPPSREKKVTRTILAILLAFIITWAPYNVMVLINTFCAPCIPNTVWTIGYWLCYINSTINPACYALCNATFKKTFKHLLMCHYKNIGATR

168 GPCRs [2] = target: T2, 168 GPCRs (Homo sapiens, UniProt P21917)
T2 construct: host or cells: PathHunter cell lines
T2 sequence (P21917 1-419): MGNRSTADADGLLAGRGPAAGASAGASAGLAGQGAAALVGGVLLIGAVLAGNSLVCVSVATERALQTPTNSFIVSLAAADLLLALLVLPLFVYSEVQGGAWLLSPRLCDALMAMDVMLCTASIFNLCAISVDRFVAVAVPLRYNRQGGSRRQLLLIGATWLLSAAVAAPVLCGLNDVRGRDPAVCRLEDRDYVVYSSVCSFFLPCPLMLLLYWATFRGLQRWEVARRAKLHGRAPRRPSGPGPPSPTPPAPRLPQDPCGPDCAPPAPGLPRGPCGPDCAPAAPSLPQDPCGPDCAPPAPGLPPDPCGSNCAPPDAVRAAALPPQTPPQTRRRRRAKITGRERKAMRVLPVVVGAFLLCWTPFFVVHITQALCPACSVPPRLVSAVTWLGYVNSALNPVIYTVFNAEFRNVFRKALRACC

168 GPCRs [3] = target: T3, 168 GPCRs (Homo sapiens, UniProt P25025)
T3 construct: host or cells: PathHunter cell lines
T3 sequence (P25025 1-360): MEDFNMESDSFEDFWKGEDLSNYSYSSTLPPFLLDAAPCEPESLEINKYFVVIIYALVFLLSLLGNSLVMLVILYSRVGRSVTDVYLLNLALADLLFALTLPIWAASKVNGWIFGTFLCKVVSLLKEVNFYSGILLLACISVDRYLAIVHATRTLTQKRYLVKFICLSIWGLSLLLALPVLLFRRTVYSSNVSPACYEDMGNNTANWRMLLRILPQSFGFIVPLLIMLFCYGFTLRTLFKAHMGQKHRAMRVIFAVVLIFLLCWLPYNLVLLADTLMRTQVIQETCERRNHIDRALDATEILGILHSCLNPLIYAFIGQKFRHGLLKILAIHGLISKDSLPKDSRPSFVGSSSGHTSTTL

168 GPCRs [4] = target: T4, 168 GPCRs (Homo sapiens, UniProt P30872); details: SSTR1
T4 construct: host or cells: PathHunter cell lines

168 GPCRs [5] = target: T5, 168 GPCRs (Homo sapiens, UniProt P35367)
T5 construct: host or cells: PathHunter cell lines

168 GPCRs [6] = target: T6, 168 GPCRs (Homo sapiens, UniProt P35462)
T6 construct: host or cells: PathHunter cell lines

168 GPCRs [7] = target: T7, 168 GPCRs (Homo sapiens, UniProt Q8TDV5)
T7 construct: host or cells: PathHunter cell lines
T7 sequence (Q8TDV5 1-335): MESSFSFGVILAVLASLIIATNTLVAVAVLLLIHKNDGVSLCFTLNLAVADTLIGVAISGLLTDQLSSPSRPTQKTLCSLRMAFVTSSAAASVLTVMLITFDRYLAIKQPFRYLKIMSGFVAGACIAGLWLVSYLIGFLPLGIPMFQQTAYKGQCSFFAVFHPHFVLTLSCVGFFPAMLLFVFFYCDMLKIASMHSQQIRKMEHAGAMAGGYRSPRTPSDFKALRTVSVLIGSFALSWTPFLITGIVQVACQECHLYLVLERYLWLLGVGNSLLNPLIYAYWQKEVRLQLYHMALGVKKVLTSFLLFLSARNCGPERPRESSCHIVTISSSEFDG

168 GPCRs [8] = target: T8, 168 GPCRs (Homo sapiens, UniProt Q99500)
T8 construct: host or cells: PathHunter cell lines
T8 sequence (Q99500 whole entry): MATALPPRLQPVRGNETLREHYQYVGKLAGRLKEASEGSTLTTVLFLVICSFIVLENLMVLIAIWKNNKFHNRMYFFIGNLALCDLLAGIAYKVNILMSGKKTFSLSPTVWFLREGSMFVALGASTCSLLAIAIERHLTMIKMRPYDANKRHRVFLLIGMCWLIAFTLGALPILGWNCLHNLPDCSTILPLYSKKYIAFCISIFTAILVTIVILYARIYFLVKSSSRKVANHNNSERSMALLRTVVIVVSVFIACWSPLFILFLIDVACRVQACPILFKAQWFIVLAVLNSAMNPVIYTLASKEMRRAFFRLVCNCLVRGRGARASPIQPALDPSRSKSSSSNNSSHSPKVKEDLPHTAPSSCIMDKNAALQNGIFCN

T5 sequence (P35367 whole entry): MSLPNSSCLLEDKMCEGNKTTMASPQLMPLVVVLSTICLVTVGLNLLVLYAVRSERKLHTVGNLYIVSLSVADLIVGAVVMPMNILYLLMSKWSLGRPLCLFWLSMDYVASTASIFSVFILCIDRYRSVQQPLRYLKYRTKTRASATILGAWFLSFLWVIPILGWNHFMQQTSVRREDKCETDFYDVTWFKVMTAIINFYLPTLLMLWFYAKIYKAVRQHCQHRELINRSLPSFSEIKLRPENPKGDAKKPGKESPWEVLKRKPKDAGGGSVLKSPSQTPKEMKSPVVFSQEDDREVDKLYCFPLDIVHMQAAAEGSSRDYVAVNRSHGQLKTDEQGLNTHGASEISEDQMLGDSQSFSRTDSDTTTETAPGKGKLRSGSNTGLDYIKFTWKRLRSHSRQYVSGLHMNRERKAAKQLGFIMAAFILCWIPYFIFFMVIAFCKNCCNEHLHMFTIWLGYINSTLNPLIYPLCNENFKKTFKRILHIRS
T4 sequence (P30872 whole entry): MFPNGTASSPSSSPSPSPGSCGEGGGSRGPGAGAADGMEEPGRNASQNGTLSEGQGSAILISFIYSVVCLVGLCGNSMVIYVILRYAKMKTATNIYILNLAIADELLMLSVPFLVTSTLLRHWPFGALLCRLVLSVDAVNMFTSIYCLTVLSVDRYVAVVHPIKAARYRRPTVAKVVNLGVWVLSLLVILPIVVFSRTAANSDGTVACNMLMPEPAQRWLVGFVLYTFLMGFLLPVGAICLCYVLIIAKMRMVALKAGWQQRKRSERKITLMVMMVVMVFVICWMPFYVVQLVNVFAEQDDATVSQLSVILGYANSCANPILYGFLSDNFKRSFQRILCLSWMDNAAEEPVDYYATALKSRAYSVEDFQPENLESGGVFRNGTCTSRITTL
T6 sequence (P35462 whole entry): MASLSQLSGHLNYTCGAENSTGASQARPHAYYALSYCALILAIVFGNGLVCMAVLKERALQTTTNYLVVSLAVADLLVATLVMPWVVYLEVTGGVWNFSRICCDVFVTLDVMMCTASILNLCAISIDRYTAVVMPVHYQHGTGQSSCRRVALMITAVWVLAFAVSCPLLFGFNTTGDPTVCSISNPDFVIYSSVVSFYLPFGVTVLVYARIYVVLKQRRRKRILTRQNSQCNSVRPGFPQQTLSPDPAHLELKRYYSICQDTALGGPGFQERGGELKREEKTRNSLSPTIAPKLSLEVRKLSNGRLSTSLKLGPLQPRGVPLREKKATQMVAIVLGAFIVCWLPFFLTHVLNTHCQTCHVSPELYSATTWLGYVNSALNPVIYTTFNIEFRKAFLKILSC

Structure (SMILES) | % Agonist Activity (168 GPCRs [1]; CHRM2, 1 uM) [%] | % Antagonist Activity (168 GPCRs [1]; CHRM2, 1 uM) [%] | % Agonist Activity (168 GPCRs [1]; CHRM2, 10 uM) [%] | % Antagonist Activity (168 GPCRs [1]; CHRM2, 10 uM) [%] | % Agonist Activity (168 GPCRs [2]; DRD4, 1 uM) [%] | % Antagonist Activity (168 GPCRs [2]; DRD4, 1 uM) [%] | % Agonist Activity (168 GPCRs [2]; DRD4, 10 uM) [%] | % Antagonist Activity (168 GPCRs [2]; DRD4, 10 uM) [%] | % Agonist Activity (168 GPCRs [3]; CXCR2, 1 uM) [%] | % Antagonist Activity (168 GPCRs [3]; CXCR2, 1 uM) [%] | % Agonist Activity (168 GPCRs [3]; CXCR2, 10 uM) [%] | % Antagonist Activity (168 GPCRs [3]; CXCR2, 10 uM) [%] | % Agonist Activity (168 GPCRs [4]; Conc 1 uM) [%] | % Antagonist Activity (168 GPCRs [4]; Conc 1 uM) [%] | % Agonist Activity (168 GPCRs [4]; Conc 10 uM) [%] | % Antagonist Activity (168 GPCRs [4]; Conc 10 uM) [%] | % Agonist Activity (168 GPCRs [5]; HRH1, 1 uM) [%] | % Antagonist Activity (168 GPCRs [5]; HRH1, 1 uM) [%] | % Agonist Activity (168 GPCRs [5]; HRH1, 10 uM) [%] | % Antagonist Activity (168 GPCRs [5]; HRH1, 10 uM) [%] | also measured
CNC(C)Cc1ccc2c(c1)OCO2 (stereo not shown) [MDMA, 3,4-Methylenedioxy methamphetamine, reference compound] | 0.9 | -1 | 1.4 | 10.5 | -0.7 | 14.9 | -0.1 | 7.7 | -0.9 | 12.8 | 2.2 | 14.6 | -9 | 5.6 | -12.3 | 7.5 | 3.1 | 13.7 | 3.8 | 38.4 | % Agonist Activity (168 GPCRs [6]; DRD3, 1 uM): 7.1%; % Antagonist Activity (168 GPCRs [6]; DRD3, 1 uM): 9.6%; % Agonist Activity (168 GPCRs [6]; DRD3, 10 uM): 7.3%; % Antagonist Activity (168 GPCRs [6]; DRD3, 10 uM): 10.6%; % Agonist Activity (168 GPCRs [7]; GPR119, 1 uM): 17.1%; % Antagonist Activity (168 GPCRs [7]; GPR119, 1 uM): 2.7%; % Agonist Activity (168 GPCRs [7]; GPR119, 10 uM): 10.2%; % Antagonist Activity (168 GPCRs [7]; GPR119, 10 uM): 3.8%; % Agonist Activity (168 GPCRs [8]; EDG3, 1 uM): -1.7%; % Antagonist Activity (168 GPCRs [8]; EDG3, 1 uM): 8.8%; % Agonist Activity (168 GPCRs [8]; EDG3, 10 uM): -1.1%; % Antagonist Activity (168 GPCRs [8]; EDG3, 10 uM): 11%
CNC(C)C(=O)c1ccc2c(c1)OCO2 (stereo not shown) [methylone] | -0.2 | -18.5 | 0.2 | -7.4 | -8 | 8.4 | -9.4 | 12.2 | -0.2 | -7.6 | -2.6 | -1 | -5.3 | 32.4 | -7.4 | 20.9 | 3 | -18 | 2.5 | -2.2 | % Agonist Activity (168 GPCRs [6]; DRD3, 1 uM): 2.2%; % Antagonist Activity (168 GPCRs [6]; DRD3, 1 uM): -12%; % Agonist Activity (168 GPCRs [6]; DRD3, 10 uM): 2.3%; % Antagonist Activity (168 GPCRs [6]; DRD3, 10 uM): -17.8%; % Agonist Activity (168 GPCRs [7]; GPR119, 1 uM): -5.8%; % Antagonist Activity (168 GPCRs [7]; GPR119, 1 uM): 17.1%; % Agonist Activity (168 GPCRs [7]; GPR119, 10 uM): -2.2%; % Antagonist Activity (168 GPCRs [7]; GPR119, 10 uM): -8.8%; % Agonist Activity (168 GPCRs [8]; EDG3, 1 uM): -9.4%; % Antagonist Activity (168 GPCRs [8]; EDG3, 1 uM): 25.8%; % Agonist Activity (168 GPCRs [8]; EDG3, 10 uM): -8.6%; % Antagonist Activity (168 GPCRs [8]; EDG3, 10 uM): 13.6%
